{"source": "patent US6482833B2", "about": "“Immunotherapeutic anti-cancer pharmaceutical compositions” (North Shore - Long Island Jewish Research Institute, priority 1997, dated 2002)", "key": {"[1]": {"assay": "Carrageenan foot pad edema model of inflammation", "assay_type": "in vivo, mice", "protocol": "To determine an inflammatory […] foot pad edema model with carrageenan, female C3H/HeN mice (20-25g) were obtained from Jackson Laboratories, and 5 mice were used in each group to obtain statistically significant results. […] Louis, Mo.) was made in PBS at 37° C. 3 days or more before using. […] Louis, Mo.) was made freshly each time. Carrageenan (50 μl, 0.2%) was injected into the plantar surface of the left hind paw to induce paw edema in control group. and spermine at the doses indicated was coadministered in 50 μl PBS in three spermine groups. The right hind paw was injected with the same volume of PBS as control for every groups. The thickness of the two paws was measured double-blindly using a caliper 3 hours and 28 hours later. The difference in the thickness between the two paws was taken as inflammatory index."}, "tumor cells": {"system": "tumor cells", "assay": "Direct cytotoxicity of the immunomodulatory compounds", "assay_type": "cell-based", "details": "effective immunostimulatory concentrations"}, "[2]": {"system": "TNFα release from LPS-stimulated macrophage cell cultures", "assay": "TNF release from LPS-activated monocyte/macrophage cultures counter-regulated by spermine (ELISA)", "assay_type": "cell-based, human", "details": "for override of spermine inhibition of TNFα release: LPS-stimulated cells with spermine, TNFα in culture supernatants, dose-response", "protocol": "Macrophage activation was measured by release of TNF into macrophage cell culture supernatants.\nMonocytes were isolated and cultured by isolating fresh human PBMCs from EDTA-blood from healthy donors (Long Island Blood Service, Melville, N.Y.) by Ficoll-Paque (Pharmacia, Uppsala, Sweden) gradient. Cells were suspended in RPMI 1640 medium (Gibco BRL, Grand Island, N.Y.) containing 10% heat-inactivated human serum, 0.1% L-glutamine, and 0.01% gentamycin), and cultured at 37° C. in a humidified atmosphere of 5% CO2 and 95% air. PBMCs were plated in 96-well plates at 5×10^5 cells per well for cytokine assay and uptake study or in 24-well plates at 5×10^6 cells per well for RNA study. Nonadherent cells were removed after overnight culture, and adherent cells (monocytes) were then used for experiment.\n(§1) Monocytes were activated to release cytokines by treating cells with 100 ng/ml sonicated LPS (Sigma, St Louis, Mo.) and 25 u/ml recombinant human interferon-γ (Boehringer Mannheim, Mannheim, Germany) except 1 μg/ml LPS alone for IL-1β. For treating cells with spermine, cells were pretreated with spermine (Sigma, St Louis, Mo.) one hour before LPS/IFG stimulation. Spermine was made freshly each time in sterile-filtered deionized water at 51.2 mM or 35 mM, and then diluted in complete RPMI 1640 medium followed by adding to individual wells to yield the final concentration indicated. Control wells received an equal volume of medium only were used in all experiment."}, "B16 F1 tumor cells": {"system": "B16 F1 tumor cells", "assay": "In vivo mouse tumor model (B16 F1 cells), tumor size and formation", "design": "species or system mice", "details": "for solid tumor masses: mice, administered parenterally"}, "TNF": {"system": "TNF", "assay": "TNF levels in tumor biopsy samples of solid tumor-bearing mice", "assay_type": "in vivo", "details": "1 mg/kg ip; tumor biopsy samples in four mice"}, "G361 cells": {"system": "G361 cells", "assay": "Macrophage-mediated cytotoxicity of LPS-activated monocytes to tumor cells", "experimental": "Tumor cell cultures were split tumor cells 1:3 in FBS-containing RPMI 1640 medium and incubate overnight 20 μCi/ml ^3H-thymidine was added to tumor cell cultures to label the cells overnight. The cells were washed to remove unabsorbed label. The cells were trypsinized and suspended in 10 ml DPBS, washed and counted. Flasks of 7.5×10^5, 7.5/2×10^5, 7.5/4×10^5, 7.5/8×10^5, 7.5/16×10^5 and 7.7/32×10^5 cells/ml in RPMI 1640 medium were prepared. The tumor cells (200 μl) were added to wells containing 3×10^5 monocytes or control wells to make the E/T ratio 2:1, 4:1, 8:1, 16:1, 32:1 and 64:1. The cell mixture was incubated for 2 hours and macrophage-mediated cytotoxicity to tumor cells was determined.\nPBMCs were isolated in a Ficoll-Paque (Pharmacia) gradient and plated. After 2 hours of incubation, the nonadherent cells were removed by rinsing with RPMI 1640 medium without serum 3×, then add 25 ml human serum-containing RPMI 1640 medium with 2 ng/ml human MCSF to each 75 flask and incubate the cells overnight. The cells were labeled with 20 uCi/ml ^3H-thymidine overnight and washed 2× with DPBS without Ca & Mg. The monocytes were isolated and counted, then diluted to 1.5×10^6 cells/ml in RPMI 1640. Tumor cells were diluted to 7.5×10^5, 7.5/2×10^5, 7.5/4×10^5, 7.5/8×10^5, 7.5/16×10^5 and 7.7/32×10^5 cells/ml in RPMI 1640 medium. About 200 μl tumor cells were added at different concentration to the wells containing 3×10^5 monocytes or control wells to make the E/T ratio 2:1, 4:1, 8:1, 16:1, 32:1 and 64:1, then incubated for 2 hrs.\nAbout 400 μg/μl LPS was sonicated for 10 min, then 19.2 μl 400 μg/ml LPS was added to 10 ml RPMI 1640 medium."}, "monocytes": {"system": "monocytes", "details": "spermine at the concentrations indicated", "protocol": "as §1"}, "[3]": {"details": "50 μM spermine, macrophages activated by endotoxin (LPS)"}}, "note": "Entries after “also recorded” stand apart in the source; their conditions may differ."}
{"smiles": "CC1(C)CC(NCCCCCCNC2CC(C)(C)NC(C)(C)C2)CC(C)(C)N1", "note": "[compound 38, N,N′-bis(2,2,6,6-tetramethyl-4-piperidyl)hexamethylenediamine]", "values": [{"measurement": "paw edema, override of inflammatory inhibition by spermine", "setting": "[1]; in vivo mouse paw edema model, dose response", "result": "overrode the inflammatory inhibition by spermine"}, {"measurement": "paw thickness, override of spermine effect", "setting": "[1]; mouse foot pad carrageenan model, clinical concentrations", "result": "overrides the spermine effect"}, {"measurement": "direct cytotoxicity", "setting": "tumor cells", "result": "not cytotoxic"}, {"measurement": "override of spermine inhibition of TNFα release", "setting": "[2]", "result": "overcome spermine inhibition of TNFα release; also recorded: effectively overrode spermine-induced suppression of TNF secretion"}, {"measurement": "tumor formation", "setting": "B16 F1 tumor cells; mice inoculated with equal amounts of tumor cells, three doses at two concentrations", "result": "delayed tumor formation"}, {"measurement": "solid tumor masses", "setting": "B16 F1 tumor cells", "result": "shrink solid tumor masses"}]}
{"smiles": "NCCCN1CCN(CCCN)CC1", "note": "[compound 91]", "values": [{"measurement": "TNF levels in tumors", "setting": "TNF", "result": "significantly increase TNF levels in tumors"}, {"measurement": "direct cytotoxicity", "setting": "tumor cells", "result": "not cytotoxic"}, {"measurement": "override of spermine inhibition of TNFα release", "setting": "[2]", "result": "effectively overrode spermine-induced suppression of TNF secretion"}, {"measurement": "tumor size, time-response", "setting": "B16 F1 tumor cells; 2 mg/kg", "result": "shrink tumor size"}, {"measurement": "growth of established tumors", "setting": "B16 F1 tumor cells; 2 mg/kg administered seven days after tumor inoculation", "result": "inhibited the growth of established tumors"}, {"measurement": "solid tumor masses", "setting": "B16 F1 tumor cells", "result": "shrink solid tumor masses"}, {"measurement": "tumor size, time response and dose-response", "setting": "B16 F1 tumor cells; two doses i.p., 0.5 mg/kg and 2 mg/kg in sterile PBS", "result": "shrink tumor size"}]}
{"smiles": "NCCCCC(CN)CCCN", "note": "(stereo not shown) [compound 94]", "values": [{"measurement": "direct cytotoxicity", "setting": "tumor cells", "result": "not cytotoxic"}]}
{"smiles": "C(CCC1CCNCC1)CC1CCNCC1", "note": "[compound 214140]", "values": [{"measurement": "override of spermine inhibition of TNFα release", "setting": "[2]", "result": "override the inhibitory effect of spermine"}]}
{"smiles": "NCCCNCCCCNCCCN", "note": "[spermine]", "values": [{"measurement": "percent cytotoxicity, LPS alone versus LPS with spermine", "setting": "G361 cells; 100 ng/ml LPS, 50 mM spermine, several ratios", "result": "reduces LPS-induced cytotoxicity"}, {"measurement": "cellular cytotoxicity of activated monocytes against G361 cells", "setting": "G361 cells; 100 ng/ml LPS, 50-100 μM spermine", "result": "significantly inhibited"}, {"measurement": "macrophage-mediated tumor cell killing", "setting": "G361 cells; [3]", "result": "effectively suppressed macrophage-mediated tumor cell killing"}, {"measurement": "acute footpad inflammation induced by carageenan", "setting": "[1]; local administration in mice", "result": "protected mice against the development of acute footpad inflammation"}, {"measurement": "suppression of TNF secretion", "setting": "[2]; [3]", "result": "effectively suppressed TNF secretion"}, {"measurement": "inhibition of cytokine synthesis", "setting": "[2]; serum-free conditions and in the presence of the polyamine oxidase inhibitor aminoguanidine", "result": "effectively inhibit cytokine synthesis"}, {"measurement": "cell viability (LDH assay)", "setting": "monocytes", "result": "did not affect cell viability significantly"}]}
